From patent US8350010B2, “Anti-alpha5/beta1 antibody” (Genentech, Inc., priority 2006, dated 2013)

Tested on: HCT116 tumor cells (colon tumor cells)
Experiment: HCT116 colon tumor model, anti-alpha5beta1 + chemotherapy
Format: in vivo, HRLN female nu/nu mice
Details: chemotherapeutic agent by itself
Experimental: HRLN female nu/nu mice were injected with 5×10^6 HCT116 tumor cells (colon tumor cells) subcutaneously in their flanks. Tumors were allowed to grow until they reach an average size of 80-120 cubic mm before treatment with therapies. Tumor bearing mice were then divided into 4 groups:
Tumor volume measurement was carried out twice a week using a standard caliper measurement method. The hamster anti-mouse integrin alpha5 mab, known as 10E7, was generated at Genentech. Body weight was measured 5 times over 2 days then twice per week (biwk) to the end of the study. The endpoint of the experiment was a tumor volume of 1.5 gms or 60 days, whichever came first. Some responders were followed longer. When the endpoint was reached, the animals were euthanized. The dosing volume was 10 mL/kg (0.200 ml/20 g mouse), which volume was adjusted for body weight. 10E7 was administered 30 minutes before irinotecan administration. For animals showing complete regression (CR), tissues at the site of tumor implantation were collected at endpoint and preserved in formulin followed by 70% EtOH for later study. All samples to be frozen were placed in a cryomold, wrapped in foil & snap frozen on liquid nitrogen.

## CCc1c2c(nc3ccc(OC(=O)N4CCC(N5CCCCC5)CC4)cc13)-c1cc3c(c(=O)n1C2)COC(=O)[C@]3(O)CC [irinotecan]
  vascular damage: did not cause significant vascular damage
